Measurements reported in patent US20050038093A1, “Treating diabetic retinopathy with angiotensin II receptor blockers” (Boehringer Ingelheim International GmbH, priority 2003, published 2005).

How the values were obtained:
PDGF-B mRNA = assay: Quantitative reverse transcription PCR of PDGF-B mRNA in cultured retinal pericytes; assay type: cell-based, bovine; conditions: 10^-7 M angiotensin II, 4 hours; for inhibition of angiotensin II induced up-regulation of PDGF mRNA levels: 10^-7 M telmisartan or 1 mM NAC
Description: To investigate the effects of angiotensin II on PDGF-B gene expression in cultured retinal pericytes, poly(A)^+ RNAs were isolated from cells treated with or without 10^−7 M angiotensin II in the presence or absence of 10^−7 M telmisartan or 1 mM NAC for 4 hours, and analyzed by RT-PCR as described in Yamagishi et al, Kidney Int 63:464, 2003. The amounts of poly(A)^+ RNA templates (about 30 ng) and cell cycle numbers for amplification (28 cycles for PDGF-B gene and 22 cycles for β-actin gene) were chosen in quantitative ranges were reactions proceeded linearly, which had been determined by plotting signal intensities as functions of the template amounts and cell cycle numbers as described in Yamagishi et al, J Biol Chem 277:20309, 2002. Sequences of primers for detecting bovine β-actin mRNAs were the same as described in Okamoto et al, FASEB J 16:1928, 2002.

pericytes = assay: Measurement of [3H]thymidine incorporation in pericytes; assay type: cell-based, bovine; conditions: 10^-7 M angiotensin, 24 hours
Description: (§1) Pericytes were isolated from bovine retina and maintained in Dulbecco's Eagle's medium supplemented with 20% of fetal bovine serum (FBS) as described in Yamagishi et al, Circulation 87:1969, 1993.
Pericytes were treated with or without 10^−7 M angiotensin in the presence or absence of 1 mM N-acetylcystein (NAC) for 24 hours, and then [^3H]thymidine incorporation in cells was determined as described in Yamagishi et al, FEBS Lett 384:103, 1996.

[1] = system: pericytes isolated from bovine retina; assay: Measurement of reactive oxygen species in pericytes; assay type: cell-based; conditions: for inhibition of angiotensin II-induced increase in the generation of reactive oxygen species in pericytes: 10^-7 M telmisartan, 10^-7 or 10^-6 M angiotensin II
Description: as §1
Angiotensin II treatment was carried out in medium containing 2% FBS. Pericytes were treated with or without 10^−7 or 10^−6 M angiotensin II in the presence or absence of 10^−7 M telmisartan for 24 hours. Then the intracellular formation of reactive oxygen species was detected as described in Yamagishi et al, A J Biol Chem 276:25096, 2001 by using the fluorescent probe CM-H2DCFDA (Molecular Probes Inc, Eugene, Oreg.).

VEGF mRNA = assay: Quantitative reverse transcription PCR of VEGF mRNA in pericytes; assay type: cell-based, bovine; conditions: 10^-7 M angiotensin II, 4 hours; for inhibition of angiotensin II-induced up-regulation of VEGF mRNA levels in pericytes: 10^-7 M telmisartan or 1 mM NAC
Description: Sequences and primers for detecting VEGF and β-actin mRNAs are described in Yamagishi et al, J Biol Chem 272:8723, 1997.
Poly(A)^+ RNAs were isolated from cells treated with or without 10^−7 M angiotensin II in the presence or absence of 10^−7 M telmisartan or 1 mM NAC for 4 hours, and analyzed by quantitative reverse transcription PCR (RT-PCR) as described in Yamagishi et al, Diabetologia 41:1435, 1998. The amounts of poly(A)^+ RNA templates (about 30 ng) and cell cycle numbers for amplification (28 cycles for VEGF gene and 22 cycles for β-actin gene) were chosen in quantitative ranges were reactions proceeded linearly, which had been determined by plotting signal intensities as functions of the template amounts and cell cycle numbers as described in Yamagishi et al, J Biol Chem 277:20309, 2002.
It has been reported that there exist five alternatively spliced products from the single VEGF gene. They are designated as VEGF121, VEGF145, VEGF165 VEGF189, and VEGF206. Since Northern blot analysis can not clearly discriminate these five mRNA products, we employed a more sensitive semi-quantitative RT-PCR technique as described in Okamoto et al, FASEB J 16:1928, 2002. In these experiments, cDNA products of 486 and 618 base pairs length are amplified from mRNAs for VEGF121 and VEGF165, respectively. […] The VEGF mRNA level was about 1.5 fold higher than the basal level when exposed to 10^−7 M angiotensin II.

[2] = IDNT study (Lewis et al, 2001); cited from earlier work
[3] = EUCLID study, cited from earlier work

CC(=O)N[C@@H](CS)C(=O)O [NAC, N-acetylcystein]
inhibition of angiotensin II induced up-regulation of PDGF mRNA levels (PDGF-B mRNA): significantly inhibit | prevention of angiotensin II-induced decrease in DNA synthesis in pericytes (pericytes; 1 mM NAC): significantly prevented | reversal of angiotensin II-induced increase in generation of reactive oxygen species by antioxidant ([1]; added during treatment of pericytes with angiotensin II): reverses the increase | inhibition of angiotensin II-induced up-regulation of VEGF mRNA levels in pericytes (VEGF mRNA): completely inhibit

angiotensin II (DRVYIHPF; Angiotensin-2; UniProt P01019 25-32, looked up) [stimulus used on pericytes]
PDGF-B mRNA level relative to basal level (PDGF-B mRNA): about 5 fold | effect on DNA synthesis in pericytes ([3H]thymidine incorporation) (pericytes): significantly inhibited | increase of intracellular generation of reactive oxygen species ([1]; 10^-6 M angiotensin II, 24 hours, medium with 2% FBS): about 1.3 fold | VEGF mRNA level relative to basal level (VEGF mRNA): about 1.5 fold

CCCc1nc2c(C)cc(-c3nc4ccccc4n3C)cc2n1Cc1ccc(-c2ccccc2C(=O)O)cc1 [telmisartan]
inhibition of angiotensin II induced up-regulation of PDGF mRNA levels (PDGF-B mRNA): significantly inhibit | effect of compound alone on generation of reactive oxygen species ([1]; 10^-7 M telmisartan without angiotensin II, 24 hours): did not affect | inhibition of angiotensin II-induced increase in the generation of reactive oxygen species in pericytes ([1]; 24 hours): inhibit | inhibition of angiotensin II-induced increase in the generation of reactive oxygen species in pericytes ([1]; 24 hours, listed as Telmisartan): completely inhibit | inhibition of angiotensin II-induced up-regulation of VEGF mRNA levels in pericytes (VEGF mRNA): completely inhibit

CCCCC1=NC2(CCCC2)C(=O)N1Cc1ccc(-c2ccccc2-c2nnn[nH]2)cc1 [irbesartan]
protection against the progression of nephropathy due to type II diabetes [2]: effective

NCCCC[C@H](N[C@@H](CCc1ccccc1)C(=O)O)C(=O)N1CCC[C@H]1C(=O)O [lisinopril]
risk of progression to proliferative retinopathy [3]: significantly reduced | reduction of the risk of progression of retinopathy ([3]; retinopathy not a primary endpoint): approximately 50%
